Data taken from patent publication US6107549A, “Genetically engineered plant resistance to thiazopyr and other pyridine herbicides” (Monsanto Company, priority 1999, dated 2000).

Legend:
porcine liver esterase = test: Pyridine-esterase activity assay with porcine liver esterase; format: biochemical; conditions: for esterase activity against substrate: commercially available preparations of porcine liver esterase
Procedure: (§1) Esterase activity assays. Esterase activity was measured in vitro by conversion of either [^14 C]thiazopyr or [^14 C]MON 14300 to their corresponding monoacid. Pyridine-esterase activity was assayed during protein purification and from tissue extracts of transgenic plants. The homogenizing buffer for plant tissues consisted of 100 mM Tris pH 8.0, 1 mM EDTA, 1 mM DTT, and 10% glycerol in water. Plant tissues (1 g/ml buffer) including leaves, seeds, flowers, seedlings, etc. were homogenized in conical centrifuge tubes using a spinning pestle at 4° C. Following centrifugation (12,000× g), the supernatant (250 μl) was assayed immediately for esterase activity by incubation with [^14 C]thiazopyr or [^14 C]MON 14300 (4 μg) in 0.1 M Tris pH 8.0 buffer (50 μl) at 37° C. The reaction was sampled (100 μL) at various times (0.5 to 100 hr) to generate a kinetic profile of monoacid formation. The reaction was stopped by addition of 1% trifluoroacetic acid in acetonitrile (v/v, 150 μl). Following centrifugation (12,000× g for 3 min), the supernatant was analyzed by HPLC/RAD (radioactivity detection) to resolve the monoacid from the parent herbicide and other metabolites. Control reactions in the absence of the esterase recovered un-reacted thiazopyr or MON 14300 for the duration of experiments. Esterase activity was also assayed during protein purification following a similar procedure except a single time-point (1-2 hrs) of incubation was selected within the linear range of reaction. In vitro assays also employed three commonly used calorimetric (p-nitrophenyl butyrate) or fluorescent (4-methyl umbelliferyl butyrate and 5-bromo-4-chloro-3-indolylacetate) substrates. These substrates are useful in rapidly and qualitatively detecting general esterase activity.
Purification of pyridine-esterases from porcine and rabbit liver. Porcine and rabbit liver esterases, obtained commercially as (NH4)2 SO4 suspensions, were desalted using a disposable SEPHADEX™ G25 size exclusion column (Pharmacia Biotech). Proteins (1 to 10 mg) were initially separated on a strong anion exchange column (MONO Q™, Pharmacia Biotech) at 4° C. The column was linearly programmed in 30 minutes from 0 to 0.4 M KCl in 10 mM Tris buffer, pH 7.4 at a flow rate of 1 m/min. Subsequently, the column was programmed from 0.4 to 1.0 M KCl in 10 min. Effluent was monitored by UV (280 nm) and fractions were collected at 1 ml intervals. Effluent fractions were assayed for protein by Coomassie dye (Bio Rad Laboratory) and for pyridine-esterase activity. Protein purity was determined by SDS-PAGE on 10 to 15% gradient gels (Pharmacia Biotech) with visualization of proteins by silver staining.
Following anion exchange chromatography, fractions with the highest purity and activity were pooled. After desalting, the pooled fractions were further separated by isoelectric focusing (IEF) chromatography on a MONO P™ column (Pharmacia Biotech) at 4° C. IEF chromotography was conducted at different pH ranges (3-9, 4-7, 5.5-6.5 or 4.5-5.5) using appropriate combinations of POLYBUFFERS™ (Pharmacia Biotech) and a flow rate of […]. Effluent fractions from IEF chromatography were analyzed for protein and pyridine-esterase activity. The protein purity of the fractions was determined by SDS-PAGE and IEF-PAGE.

rabbit liver esterase = test: Pyridine-esterase activity assay with rabbit liver esterase; format: biochemical; conditions: commercially available rabbit liver esterase
Procedure: Esterase activity assays. Esterase activity was measured in vitro by conversion of either [^14 C]thiazopyr or [^14 C]MON 14300 to their corresponding monoacid. Pyridine-esterase activity was assayed during protein purification and from tissue extracts of transgenic plants. The homogenizing buffer for plant tissues consisted of 100 mM Tris pH 8.0, 1 mM EDTA, 1 mM DTT, and 10% glycerol in water. Plant tissues (1 g/ml buffer) including leaves, seeds, flowers, seedlings, etc. were homogenized in conical centrifuge tubes using a spinning pestle at 4° C. […] Following centrifugation (12,000× g for 3 min), the supernatant was analyzed by HPLC/RAD (radioactivity detection) to resolve the monoacid from the parent herbicide and other metabolites. […]
Purification of pyridine-esterases from porcine and rabbit liver. […] Effluent was monitored by UV (280 nm) and fractions were collected at 1 ml intervals. […] Protein purity was determined by SDS-PAGE on 10 to 15% gradient gels (Pharmacia Biotech) with visualization of proteins by silver staining.
Following anion exchange chromatography, fractions with the highest purity and activity were pooled. […] Effluent fractions from IEF chromatography were analyzed for protein and pyridine-esterase activity. The protein purity of the fractions was determined by SDS-PAGE and IEF-PAGE.

RLE3 = molecular target: T1, RLE3 (Oryctolagus cuniculus, UniProt P12337, A196R/H30K); test: Esterase activity of RLE3 cDNA expressed in insect cells; format: biochemical, rabbit; conditions: culture media from SF9 cells containing RLE3 cDNA
T1 construct: 19-residue synthetic ER signal peptide (design based on the homologous rat esterase, Robbi et al. 1990; Ala added after Met) (N); made in house; host or cells: Spodoptera frugiperda SF9 cells, baculovirus
T1 sequence (P12337 with tags, fused parts or gaps H30K/A196R): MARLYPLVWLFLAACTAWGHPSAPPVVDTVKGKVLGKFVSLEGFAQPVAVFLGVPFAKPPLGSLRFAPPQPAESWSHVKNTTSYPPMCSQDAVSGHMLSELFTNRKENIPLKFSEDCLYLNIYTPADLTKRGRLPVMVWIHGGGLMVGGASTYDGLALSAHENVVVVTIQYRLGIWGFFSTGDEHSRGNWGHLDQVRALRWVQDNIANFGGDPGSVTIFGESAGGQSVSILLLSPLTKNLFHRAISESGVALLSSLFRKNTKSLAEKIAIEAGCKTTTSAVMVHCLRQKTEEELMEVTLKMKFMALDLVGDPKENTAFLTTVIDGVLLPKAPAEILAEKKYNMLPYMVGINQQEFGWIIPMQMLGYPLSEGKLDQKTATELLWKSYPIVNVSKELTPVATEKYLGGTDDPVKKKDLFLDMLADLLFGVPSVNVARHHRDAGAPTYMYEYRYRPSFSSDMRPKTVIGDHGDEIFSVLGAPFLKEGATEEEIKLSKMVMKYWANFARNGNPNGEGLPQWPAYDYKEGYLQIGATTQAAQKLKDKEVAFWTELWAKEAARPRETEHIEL
Procedure: as §1
Expression of RLE1 and RLE3 cDNAs in insect cells. Mature rabbit liver esterases are glycoproteins which reside in the lumen of the endoplasmic reticulum (ER) (Korza et al., 1988). […]

[1] = purified porcine esterase against thiazopyr, double reciprocal plot

SMILES	rate of hydrolysis compared with thiazopyr (porcine liver esterase; commercial porcine liver esterase)	esterase activity against substrate (porcine liver esterase)	esterase activity against substrate (rabbit liver esterase)	esterase activity against substrate (RLE3)	Km (porcine liver esterase; [1])	Vmax (porcine liver esterase; [1])
COC(=O)c1c(C(F)F)nc(C(F)(F)F)c(C(=O)n2cccn2)c1CC(C)C [MON 14300]	hydrolyzed faster than thiazopyr	demonstrated activity	active	demonstrated esterase activity	–	–
COC(=O)c1c(C(F)F)nc(C(F)(F)F)c(C2=NCCS2)c1CC(C)C [thiazopyr]	–	demonstrated activity	active	demonstrated esterase activity	320 µM	10.8 nmol/min/mg
